Data from patent publication US11680939B2, “Systems and methods for detecting bioactive compounds using sensors with pre-stimulated cells” (priority 2019, dated 2023).

Tested on: sensor cells
Assay: Impedance response of a sensor with photosensitive living cells to light pulses on exposure to a cytotoxin (FIG. 9)
Format: cell-based
Details: toxin sample vs. clean sample, optically stimulated sensor cells
From the text: FIG. 2 illustrates an exemplary behavior of sensor cells when exposed to light according to some embodiments of the present invention. Some embodiments employ sensor cells which are genetically modified to express an opsin (e.g., channel rhodopsin, without loss of generality), and/or other channel proteins with a role in maintaining cellular homeostasis (e.g., potassium channel ROMK1, without loss of generality). In the illustrated example, exposure to light induces a sudden intake of sodium ions through the cell membrane, which may substantially change the membrane potential and therefore the measured impedance of the respective cell. […]
FIGS. 4-A-B show exemplary impedance responses of a sensor to a single light pulse and to a pulse train, respectively, according to some embodiments of the present invention wherein the sensor is prepared to contain cells having optically-sensitive ion channels. As the cellular membrane potential changes in response to the light pulse(s), the change is registered in the measured impedance of the sensor. […] This observation enables some embodiments of the present invention to detect and/or quantitate the target analyte from time series of impedance measurements. […]
A step 120 acquires a target impedance time series comprising a plurality of values, at least two of which are determined at distinct moments in time. […]

Compound: C[C@@H]1O[C@@H](O[C@H]2C[C@@H](O)[C@]3(CO)[C@H]4[C@H](O)C[C@]5(C)[C@@H](C6=CC(=O)OC6)CC[C@]5(O)[C@@H]4CC[C@]3(O)C2)[C@H](O)[C@H](O)[C@H]1O [ouabain]
- response of the sensor to exposure to a cytotoxin (impedance response, membrane repolarization after light pulses): visible modifications of cell homeostasis
